Measurements: PubChem BioAssay (NCI)
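The compound was tested at five concentrations on cells cultured in 96-well plates, with a 48-hour exposure period. TGI denotes the concentration required for complete inhibition of growth.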

Columns and labels:
Test in all cases: NCI tumour cell line growth inhibition, 48 h
[1] = tested on: SK-MEL-5 melanoma
[2] = tested on: NCI-H23 lung
[3] = tested on: 786-0 renal
[4] = tested on: OVCAR-4 ovarian
[5] = tested on: TK-10 renal
[6] = tested on: UO-31 renal
[7] = tested on: OVCAR-5 ovarian
[8] = tested on: SNB-75 CNS
[9] = tested on: RPMI-8226 leukemia
[10] = tested on: CCRF-CEM leukemia
[11] = tested on: HS 578T breast
[12] = tested on: SK-MEL-28 melanoma
[13] = tested on: SK-OV-3 ovarian
[14] = tested on: UACC-62 melanoma
[15] = tested on: K-562 leukemia
[16] = tested on: MDA-N
[17] = tested on: ACHN renal
[18] = tested on: SF-539 CNS
[19] = tested on: SN12C renal
[20] = tested on: HOP-62 NSCLC

Compound	TGI [1]	TGI [2]	TGI [3]	TGI [4]	TGI [5]	TGI [6]	TGI [7]	TGI [8]	TGI [9]	TGI [10]	TGI [11]	TGI [12]	TGI [13]	TGI [14]	TGI [15]	TGI [16]	TGI [17]	TGI [18]	TGI [19]	TGI [20]
Clc1ccc(C2=C(c3ccccc3)C(c3ccc(Cl)cc3)N3C(=N[C@H]4CCCC[C@@H]43)N2)cc1 (some centres not stated)	24.8 µM	28 µM	27.8 µM	21.4 µM	22.3 µM	26.4 µM	29.8 µM	30 µM	7.56 µM	26 µM	49.5 µM	26.5 µM	30.8 µM	31.4 µM	7.98 µM	28 µM	23.2 µM	29.7 µM		
c1ccc2sc(C3(N4CCC5(CC4)OCCO5)CCCCC3)cc2c1	> 100 µM	> 100 µM	> 100 µM	> 100 µM	> 100 µM	> 100 µM	> 100 µM	> 100 µM	> 100 µM	> 100 µM	> 100 µM	> 100 µM	> 100 µM	> 100 µM	> 100 µM	> 100 µM	> 100 µM	> 100 µM	> 100 µM	> 100 µM
Cc1cn([C@H]2C[C@@H]3[C@@H](COC(CCl)N3O)O2)c(=O)[nH]c1=O (some centres not stated)	> 100 µM		> 100 µM	> 100 µM	> 100 µM	> 100 µM	> 100 µM	> 100 µM	> 100 µM	> 100 µM	> 100 µM	> 100 µM	> 100 µM	> 100 µM	> 100 µM	> 100 µM		> 100 µM	> 100 µM	> 100 µM
COc1c(O)c(O)c2c(c1O)C(=O)c1cc(C)cc(O)c1C2=O	> 100 µM	> 100 µM	> 100 µM	> 89.1 µM	> 100 µM	> 100 µM	> 100 µM	> 86.5 µM	> 100 µM	> 100 µM	78.9 µM	> 100 µM	> 80 µM	54.5 µM	98.5 µM	> 100 µM	> 100 µM	> 100 µM	> 100 µM	> 100 µM
O=[N+]([O-])C(=C(N1CCCCC1)N1CCCCC1)/C(Cl)=C(\Cl)[N+](=O)[O-]	11 µM	14 µM	10.2 µM	22.8 µM	10.1 µM	8.11 µM	35.5 µM	32.9 µM	13.7 µM	> 31.3 µM	11.6 µM	37.3 µM	> 59.8 µM	29.2 µM	> 100 µM	13.3 µM	9.24 µM	25.8 µM	4.8 µM	31.4 µM
CCOC(=O)c1[nH]cc(C)c1-c1c[nH]c2ccccc12	34.5 µM	> 100 µM	> 100 µM	> 100 µM	> 80.3 µM	48.1 µM	> 100 µM	90.7 µM	41.9 µM	> 78.1 µM	61.7 µM	> 100 µM	> 100 µM	> 100 µM	> 80.4 µM	> 83.8 µM	> 71.4 µM	> 100 µM	> 100 µM	> 100 µM
CN=C(N)/N=C(\N)Nc1cc2ccccc2c2ccccc12	30.6 µM	33.2 µM	25.5 µM	33.6 µM	26 µM	27.4 µM	33 µM	27.6 µM	43.3 µM	26.1 µM	42.3 µM	34.1 µM	32.9 µM	28.2 µM	44.5 µM	27.8 µM	26.3 µM	29.4 µM	27.2 µM	33.4 µM
CC1OC(OC2C(CO)OC(O[C@H]3CC[C@@]4(C)C(=CC[C@H]5[C@@H]6C[C@@H]7O[C@](O)(CC[C@H](CO)COC8OC(CO)C(O)C(O)C8O)[C@@H](C)[C@@H]7[C@@]6(C)CC[C@@H]54)C3)C(OC3OC(C)C(O)C(O)C3O)C2O)C(O)C(O)C1O (some centres not stated)	> 100 µM	> 100 µM	> 100 µM	> 100 µM	> 100 µM	> 100 µM	> 100 µM	> 100 µM	> 100 µM	> 100 µM	> 100 µM	> 100 µM	> 100 µM	> 100 µM	> 100 µM	> 100 µM	> 100 µM	> 100 µM	> 100 µM	> 100 µM
O=C1N=NC(=O)N1c1cc(C(F)(F)F)cc(C(F)(F)F)c1	7.62 µM	6.48 µM	17 µM	27.5 µM	> 42.8 µM	7.89 µM	30.5 µM	11.7 µM	22.1 µM	> 45 µM	20.8 µM	44.3 µM	16.2 µM	18.3 µM	32.9 µM	20.4 µM	14.2 µM	20.7 µM	13.8 µM	15 µM
C=C(C)[C@H]1C[C@@H]2O[C@@](O)(/C(C)=C\C(=O)/C=C(/C)C[C@H]3OC(=O)[C@@]24O[C@H]34)[C@@H]1O	> 100 µM		> 100 µM	> 100 µM	> 100 µM		> 100 µM	> 100 µM	> 100 µM	> 100 µM	> 100 µM	> 100 µM	> 100 µM	> 100 µM	> 100 µM	> 100 µM	> 100 µM	> 100 µM	> 100 µM	
CC1OC(OC2C(CO)OC(O[C@H]3CC[C@@]4(C)C(=CC[C@H]5[C@@H]6C[C@@H]7O[C@](O)(CC[C@H](C)COC8OC(CO)C(O)C(O)C8O)[C@@H](C)[C@@H]7[C@@]6(C)CC[C@@H]54)C3)C(OC3OC(C)C(O)C(O)C3O)C2O)C(O)C(O)C1O (some centres not stated)	> 32.8 µM	17.4 µM	5.72 µM	28.8 µM	> 100 µM	13.3 µM	> 49.1 µM	4.78 µM	17.4 µM	4.47 µM	6.71 µM	12 µM	6.12 µM	> 50.4 µM	> 33.4 µM	11.3 µM	40.3 µM	> 21.6 µM	> 26 µM	6.04 µM
C=C(C)[C@@H]1CCC2=C[C@H](OC2=O)[C@@]2(C)C[C@@H]2C(=O)/C=C(/C)C(=O)[C@H]1OC(C)=O	29.7 µM	> 58.5 µM	30.3 µM	> 63.6 µM	> 62.7 µM	> 100 µM	43.9 µM	> 83.5 µM	23.5 µM	> 25.2 µM	88.6 µM	52.9 µM	> 84.7 µM	> 73 µM	> 32.2 µM	> 35.8 µM	> 48.2 µM	> 33.7 µM	> 56.9 µM	97.6 µM
COC(=O)C1(Cc2cccc(C)c2)Cc2c(C)cccc2C1=O (configuration not stated)	> 100 µM	> 100 µM	> 100 µM	> 100 µM	> 100 µM	> 100 µM	> 100 µM	> 100 µM	> 100 µM	> 100 µM	> 100 µM	> 100 µM	> 100 µM	> 100 µM	> 100 µM	34.5 µM	> 100 µM	> 100 µM	> 100 µM	> 100 µM
Cn1c(=O)cc(N=Nc2ccc(Cl)c(Cl)c2)[nH]c1=O	> 100 µM	86.5 µM	31.9 µM	61.7 µM	47.9 µM	> 100 µM	> 100 µM	> 100 µM	71.1 µM	68.8 µM	94 µM	57.5 µM	> 100 µM	> 100 µM	55.9 µM	37.4 µM	47.4 µM	> 100 µM	> 100 µM	> 100 µM
CC1=NN(C(=O)CC(=O)Nc2cccc(C)c2)C(=O)C1N=Nc1ccc(S(=O)(=O)c2ccc(N=NC3C(=O)N(C(=O)CC(=O)Nc4cccc(C)c4)N=C3C)cc2)cc1 (configuration not stated)	> 100 µM	> 100 µM	> 100 µM	> 100 µM	> 100 µM	> 100 µM	> 100 µM	> 100 µM	> 100 µM	> 100 µM	> 100 µM	> 100 µM	> 100 µM	> 100 µM	> 100 µM	> 100 µM	> 100 µM	> 100 µM	> 100 µM	> 100 µM
CCCC(=O)NC(C(=O)OCC)(N1CCOCC1)C(F)(F)F (configuration not stated)	> 100 µM	> 100 µM	> 100 µM	> 100 µM	> 100 µM	> 100 µM	> 100 µM	> 100 µM	> 100 µM	> 100 µM	> 100 µM	> 100 µM	> 100 µM	> 100 µM	> 100 µM	> 100 µM	> 100 µM	> 100 µM	> 100 µM	> 100 µM
CC(C)(C)C1(O)C=C(O)C(=O)N1NC(=O)c1ccccc1Nc1ccccc1 (configuration not stated)	> 100 µM	> 100 µM	> 100 µM	> 100 µM	> 100 µM	> 100 µM	> 100 µM	> 100 µM	> 100 µM	57.6 µM	> 100 µM	> 100 µM	> 100 µM	63 µM	> 100 µM	> 100 µM	> 100 µM	> 100 µM	> 100 µM	
